Where a name gives a salt, the structure may show the parent alone.
Assays:
[1] = biological target: T1, KRas G12C (Homo sapiens, UniProt P01116, C118S/C51S/C80L/G12C); test: KRas G12C Modification Assay (LCMS detection of covalent adduct); assay type: binding; conditions: 5 μM concentration for 3 hours
T1 construct: GDP-loaded K-Ras (1-169) G12C, C51S, C80L, C118S
Method: This Example illustrates that exemplary compounds of the present invention covalently bind to KRas G12C using a LCMS assay to detect a covalent adduct of the exemplary compound and KRAS G12C.
The protein concentration of GDP-loaded K-Ras (1-169) G12C, C51S, C80L, C118S and GTP-loaded K-Ras (1-169) G12C, C51S, C80L, C118S, Q61H was adjusted to 2 μM in K-Ras Assay Buffer (25 mM HEPES, 150 mM NaCl, 5 mM MgCl2, and 10 mM Octyl β-glucopyranoside at pH 7.5). A 10 μL aliquot of each protein solution was transferred to a 384 well microtiter plate. Initial compound stocks were generated at fifty times their desired final assay concentration in DMSO.
Exemplary compounds of formula (I) were diluted 25-fold into K-Ras Assay Buffer to a final of two times their final concentration. A 10 μL aliquot of each diluted compound solution was added to each of the protein solutions in the microtiter plate to initiate reaction. Typical final compound concentrations were 3.0, 5.0 and 25.0 μM. At each time point, the reactions were quenched with 20 μL of a 25 mM acetic acid solution. Usual assay endpoints were 15, 180 and 1440 minutes. Once all reactions were quenched, the plates were heat sealed and the samples were injected into a LC/MS system for data acquisition.
Data collection took place on an Agilent 6520 Q-TOF Accurate Mass Spectrometer. Samples were injected in their liquid phase onto a C-3 reverse phase column to remove assay buffer and prepare the samples for mass spectrometer. The proteins were eluted from the column using an acetonitrile gradient and fed directly into the mass analyzer. Initial raw data analysis took place in Agilent MassHunter software immediately post data acquisition.
Raw data analysis of the intact protein was exclusively a deconvolution of the multiple charge states of each protein in solution using a maximum entropy deconvolution provided in Mass Hunter. To minimize complexity, only the data over limited mass ranges were considered for analysis, with a minimum of one Dalton mass step intervals. The heights of all masses identified during raw data analysis were exported to be further analyzed in Spotfire® data analysis software.
Final data analysis was a multistep process in the Spotfire® data analysis software package. Briefly, each protein mass was calculated as a percent of the total signal of that sample, that percentage was normalized to the percentage of signal of the protein in the absence of reactive compounds. Those normalized signals were reported as normalized percent of control (POC). […] Key: N.D. is not determined.

[2] = biological target: T2, KRas G12C (Homo sapiens, UniProt P01116, G12C); test: Cellular inhibition of KRas G12C measured by Phospho-ERK in NCI-11358 cells; assay type: cell-based; conditions: NCI-11358 cells (ATCC CRL-5807), 3 hours; read-out: Inhibition (IC50, pERK (Thr202/Tyr204) signal normalized with GAPDH)
T2 construct: NCI-11358 cells (ATCC CRL-5807) express KRas G12C; host or cells: NCI-H358
Method: The cellular inhibition of KRAs G12C by exemplary compounds of the present invention was determined by measuring the amount of a downstream marker of KRas activity, phosphorylated ERK (“Phospho-ERK”).
NCI-11358 cells (ATCC CRL-5807) express KRas G12C and were grown in RPMI medium supplemented with 10% fetal bovine serum, penicillin/streptomycin and 10 mM HEPES. Cells were plated in poly-D-Lysine coated 96-well plates at a concentration of 50,000 cells/well and allowed to attach for 8-12 hours. Diluted compounds were then added at a final concentration of 0.5% DMSO. After 3 hours, the medium was removed, 150 μL of 4% formaldehyde was added and the plates were incubated for 20 minutes. The plates were washed with PBS, and permeabilized using 150 μL of ice cold 100% methanol for 10 minutes. Non-specific antibody binding to the plates was blocked using 100 μL Licor Blocking Buffer (Li-Cor Biotechnology, Lincoln NE) for 1 hour at room temperature. Positive control samples and samples lacking cells were parallel processed with test samples as standards.
The amount Phospho-ERK was determined using an antibody specific for the phosphorylated form of ERK and compared to the amount of GAPDH. Primary antibodies used for detection were added as follows: Phospho-ERK (Cell Signaling cs9101) diluted 1:500 and GAPDH (Millipore MAB374) diluted 1:5000 in Licor block+0.05% Tween 20. The plates were incubated for 2 hours at room temperature. The plates were washed with PBS+0.05% Tween 20.
Secondary antibodies used to visualize primary antibodies were added as follows: Anti-rabbit-680 diluted 1:1000 and Anti-mouse-800 diluted 1:1000 in Licor Block+0.05% Tween 20 and incubated for 1 hour at room temperature. The plates were washed with PBS+0.05% Tween 20. A 100 μL aliquot of PBS was added to each well and the plates were read on a LICOR AERIUS plate reader.
The pERK (Thr202/Tyr204) signal was normalized with the GAPDH signal and percent of DMSO control values were calculated. IC50 values were generated using a 4 parameter fit of the dose response curve. Key: “A”: ≤1 μM, “B”>1 μM and N.D.=not determined.

With C=CC(=O)N1CC(CN2C(=O)[C@H](CCN(C)C)Oc3cc(-c4cccc5ccccc45)c(Cl)cc32)C1 [Example 33, (S)-4-((1-acryloylazetidin-3-yl)methyl)-6-chloro-2-(2-(dimethylamino)ethyl)-7-(naphthalen-1-yl)-2H-benzo[b][1,4]oxazin-3(4H)-one] the “POC (normalized percent of control, covalent modification of KRas G12C)” value [1] was 32% of control and the IC50 [2] was greater than 1000 nM.
For C=CC(=O)N1CC(CN2C(=O)C(CN3CCN(C)CC3)Oc3cc(-c4cc(O)cc5ccccc45)c(Cl)cc32)C1 (stereo not shown) [Example 8, 4-((1-acryloylazetidin-3-yl)methyl)-6-chloro-7-(3-hydroxynaphthalen-1-yl)-2-((4-methylpiperazin-1-yl)methyl)-2H-benzo[b][1,4]oxazin-3(4H)-one bis(2,2,2-trifluoroacetate)], the “POC (normalized percent of control, covalent modification of KRas G12C)” value [1] was 87% of control and the IC50 [2] was no more than 1000 nM.
C=CC(=O)N1CC(CN2C(=O)C(CN3CCCC3)Oc3cc(-c4cccc5ccccc45)c(Cl)cc32)C1 (stereo not shown) [Example 24, 4-((1-acryloylazetidin-3-yl)methyl)-6-chloro-7-(naphthalen-1-yl)-2-(pyrrolidin-1-ylmethyl)-2H-benzo[b][1,4]oxazin-3(4H)-one 2,2,2-trifluoroacetate] was tested, and the “POC (normalized percent of control, covalent modification of KRas G12C)” value [1] was 86% of control and the IC50 [2] was greater than 1000 nM.
For C=CC(=O)N1CC(C)(CN2C(=O)COc3cc(-c4cc(O)cc5ccccc45)c(Cl)cc32)C1 [Example 17, 4-((1-acryloyl-3-methylazetidin-3-yl)methyl)-6-chloro-7-(3-hydroxynaphthalen-1-yl)-2H-benzo[b][1,4]oxazin-3(4H)-one], the “POC (normalized percent of control, covalent modification of KRas G12C)” value [1] was 85% of control and the IC50 [2] was greater than 1000 nM.
C=CC(=O)N1CC(CN2C(=O)[C@@H](CCN(C)C)Oc3cc(-c4cc(O)cc5ccccc45)c(Cl)cc32)C1 [Example 18, (R)-4-((1-acryloylazetidin-3-yl)methyl)-6-chloro-2-(2-(dimethylamino)ethyl)-7-(3-hydroxynaphthalen-1-yl)-2H-benzo[b][1,4]oxazin-3(4H)-one] was tested, and the “POC (normalized percent of control, covalent modification of KRas G12C)” value [1] was 91% of control and the IC50 [2] was no more than 1000 nM.
With C=CC(=O)N1CC(CN2C(=O)C(CN3CCC(N(C)C)CC3)Oc3cc(-c4cc(O)cc5ccccc45)c(Cl)cc32)C1 (stereo not shown) [Example 5, 4-((1-acryloylazetidin-3-yl)methyl)-6-chloro-2-((4-(dimethylamino)piperidin-1-yl)methyl)-7-(3-hydroxynaphthalen-1-yl)-2H-benzo[b][1,4]oxazin-3(4H)-one] the “POC (normalized percent of control, covalent modification of KRas G12C)” value [1] was 95% of control and the IC50 [2] was no more than 1000 nM.
For C=CC(=O)N1CC(CN2C(=O)COc3cc(-c4cccc5ccccc45)c(Cl)cc32)C1 [Example 21, 4-((1-acryloylazetidin-3-yl)methyl)-6-chloro-7-(naphthalen-1-yl)-2H-benzo[b][1,4]oxazin-3(4H)-one], the “POC (normalized percent of control, covalent modification of KRas G12C)” value [1] was 90% of control and the IC50 [2] was greater than 1000 nM.
C=CC(=O)N1CC(CN2C(=O)[C@H](CCN(C)C)Oc3cc(-c4c(C)ccc5[nH]ncc45)c(Cl)cc32)C1 (single isomer, unassigned) [Example 36] was tested, and the “POC (normalized percent of control, covalent modification of KRas G12C)” value ([1]; 5 µM) was 27% of control and the IC50 [2] was greater than 1000 nM.
In the case of C=CC(=O)N1CC(CN2C(=O)COc3c2cc(Cl)c(-c2cc(O)cc4ccccc24)c3F)C1 [Example 16, 4-((1-acryloylazetidin-3-yl)methyl)-6-chloro-8-fluoro-7-(3-hydroxynaphthalen-1-yl)-2H-benzo[b][1,4]oxazin-3(4H)-one], the “POC (normalized percent of control, covalent modification of KRas G12C)” value [1] is reported as 100% of control and the IC50 [2] is reported as greater than 1000 nM.
In the case of C=CC(=O)N1CC(CN2C(=O)COc3c2ccc(-c2cc(O)cc4ccccc24)c3F)C1 [Example 6, 4-((1-acryloylazetidin-3-yl)methyl)-8-fluoro-7-(3-hydroxynaphthalen-1-yl)-2H-benzo[b][1,4]oxazin-3(4H)-one], the “POC (normalized percent of control, covalent modification of KRas G12C)” value [1] is reported as 86% of control and the IC50 [2] is reported as greater than 1000 nM.
For C=CC(=O)N1CC(CN2C(=O)COc3cc(-c4cc(O)cc5ccccc45)c(C)cc32)C1 [Example 19, 4-((1-acryloylazetidin-3-yl)methyl)-7-(3-hydroxynaphthalen-1-yl)-6-methyl-2H-benzo[b][1,4]oxazin-3(4H)-one], the “POC (normalized percent of control, covalent modification of KRas G12C)” value [1] was 99% of control and the IC50 [2] was greater than 1000 nM.
With C=CC(=O)N1CC(CN2C(=O)COc3cc(-c4ccccc4C(F)(F)F)c(Cl)cc32)C1 [Example 37, 4-((1-acryloylazetidin-3-yl)methyl)-6-chloro-7-(2-(trifluoromethyl)phenyl)-2H-benzo[b][1,4]oxazin-3(4H)-one] the “POC (normalized percent of control, covalent modification of KRas G12C)” value [1] was 66% of control and the IC50 [2] was greater than 1000 nM.
With C=CC(=O)N1CC(CN2C(=O)C(CCCN3CCCC3)Oc3cc(-c4cc(O)cc5ccccc45)c(Cl)cc32)C1 (stereo not shown) [Example 22, 4-((1-acryloylazetidin-3-yl)methyl)-6-chloro-7-(3-hydroxynaphthalen-1-yl)-2-(3-(pyrrolidin-1-yl)propyl)-2H-benzo[b][1,4]oxazin-3(4H)-one 2,2,2-trifluoroacetate] the “POC (normalized percent of control, covalent modification of KRas G12C)” value [1] was 97% of control and the IC50 [2] was no more than 1000 nM.
In the case of C=CC(=O)N1CC(CN2C(=O)COc3cc(-c4c(C)ccc5[nH]cnc45)c(Cl)cc32)C1 [Example 15, 4-((1-acryloylazetidin-3-yl)methyl)-6-chloro-7-(5-methyl-1H-benzo[d]imidazol-4-yl)-2H-benzo[b][1,4]oxazin-3(4H)-one trifluoroacetate salt], the “POC (normalized percent of control, covalent modification of KRas G12C)” value [1] is reported as 97% of control and the IC50 [2] is reported as greater than 1000 nM.
For C=CC(=O)N1CC(CN2C(=O)COc3cc(-c4onc5ccccc45)c(Cl)cc32)C1 [Example 29, 4-((1-acryloylazetidin-3-yl)methyl)-7-(benzo[c]isoxazol-3-yl)-6-chloro-2H-benzo[b][1,4]oxazin-3(4H)-one], the “POC (normalized percent of control, covalent modification of KRas G12C)” value [1] was 25% of control and the IC50 [2] was greater than 1000 nM.
In the case of C=CC(=O)N1CC(CN2C(=O)CSc3cc(-c4cc(O)cc5ccccc45)ccc32)C1 [Example 14, 4-((1-acryloylazetidin-3-yl)methyl)-7-(3-hydroxynaphthalen-1-yl)-2H-benzo[b][1,4]thiazin-3(4H)-one], the “POC (normalized percent of control, covalent modification of KRas G12C)” value [1] is reported as 102% of control and the IC50 [2] is reported as greater than 1000 nM.
C=CC(=O)N1CC(CN2C(=O)COc3cc(-c4cc(O)cc5ccccc45)c(Cl)cc32)C1 [Example 1, 4-((1-acryloylazetidin-3-yl)methyl)-6-chloro-7-(3-hydroxynaphthalen-1-yl)-2H-benzo[b][1,4]oxazin-3(4H)-one] was tested, and the “POC (normalized percent of control, covalent modification of KRas G12C)” value [1] was 104% of control and the IC50 [2] was no more than 1000 nM.

Reference: patent US11932633B2, “KRas G12C inhibitors” (Mirati Therapeutics, Inc., priority 2018, dated 2024)
